According to patent US11091535B2, “Thrombin inhibitors for treatment of stroke and related coagulative disorders” (THE UNIVERSITY OF SYDNEY, priority 2016, dated 2021):

Tested on: pooled citrated plasma
Assay: in vitro activated partial thromboplastin time (APTT) assay
Set-up: species or system mice
Settings: hirudin at concentrations above 2 μg/mL
Procedure: The anticoagulant activity of the thrombin inhibitors disclosed herein is determined by measuring their ability to prolong clotting of human plasma in vitro using a clinical TT assay. Briefly, human plasma from healthy donors (800 μL) is mixed with a concentration range of inhibitors, clotting initiated by addition of thrombin, and clotting time measured using a coagulometer. Compounds which prolong clotting time to 30 sec at a concentration of 50 nM may be further investigated in vitro/ex vivo for APTT. In brief, pooled citrated plasma from C57BL6/J mice is pre-incubated with various concentrations (0-12 μg/mL) of inhibitors. APTT of each plasma sample is quantified following addition of a coagulation activator and CaCl2). In an ex vivo assay, mice are injected i.v. with inhibitors (fixed concentration determined from in vitro APTT) and whole blood collected into sodium citrate (˜130 μL) 0, 5, 30 and 60 min post-administration. APTT is quantified on isolated plasma using a RANDOX APTT kit, with fibrin generation monitored to measure clotting time.
We investigated the ability of the inhibitor of Example 2 (A^Aa) to prolong clotting time in an in vitro activated partial thromboplastin time (APTT) assay (FIG. 1A).

Substance: hirudin
- increase in clotting time (APTT): 8 fold
